From patent US9498483B2, “2,3,5-trisubstituted thiophene compounds and uses thereof” (priority 2010, dated 2016)

Experiments:
HCV polymerase = molecular target: T1, HCV polymerase (Hepatitis C virus genotype 1b, UniProt Q9WMX2); experiment: Polymerase assay of Biological Example 1 (IC50 values of Table 3); format: biochemical; conditions: IC50 values of Table 3, polymerase assay of Biological Example 1; read-out: NS5B-enzyme3
T1 construct: (His)6 (C); made in house; host or cells: XL-1 cells (E. coli, by own knowledge)

[1] = test system: HCV replicon I389luc-ubi-neo/NS3-3′/ET in ET (Huh-lucubineo-ET) cells; experiment: Replicon assay (Biological Example 2), luciferase readout; format: cell-based; conditions: Hepatitis C virus
Outline: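 EC50 values come from Hill fits of % inhibition of replicon-driven firefly luciferase, relative to no-compound wells. Compounds were serially diluted (10 points, 3-fold, 0.1 nM–50 μM final, 0.5% DMSO) onto ET replicon cells and read after 48 h.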

[2] = ET cells, luciferase activity 48 hours after compound

Row | Structure (SMILES) | IC50 (HCV polymerase) | IC50 [1, 2] | IC50 ([1]; between 100 nM and 5.0 uM)
1 | O=C(O)c1sc(-c2ccccc2)cc1N1C(=O)CN(S(=O)(=O)c2cccc(Cl)c2Cl)CC1C1CCCCC1 (stereo not shown) [Compound 111, 3-[2-Cyclohexyl-4-(2,3-dichloro-benzenesulfonyl)-6-oxo-piperazin-1-yl]-5-phenyl-thiophene-2-carboxylic acid] | 243 nM | ≥ 5000 nM | –
2 | O=C(O)c1sc(-c2ccccc2)cc1N1C(=O)CN(S(=O)(=O)C2CCN(C(=O)OCc3ccccc3)CC2)CC1C1CCCCC1 (stereo not shown) [Compound 112, 4-[4-(2-Carboxy-5-phenyl-thiophen-3-yl)-3-cyclohexyl-5-oxo-piperazine-1-sulfonyl]-piperidine-1-carboxylic acid benzyl ester] | 173 nM | ≥ 5000 nM | –
3 | CC(C)(C)c1ccc(-c2cc(N3C(=O)CCCC3C3CCCCC3)c(C(=O)O)s2)cc1 (stereo not shown) [Compound 113, 5-(4-tert-Butyl-phenyl)-3-(2-cyclohexyl-6-oxo-piperidin-1-yl)-thiophene-2-carboxylic acid] | 44 nM | – | 100 to 5000 nM
4 | COc1ccc(-c2cc(N3C(=O)CCCC3C3CCCCC3)c(C(=O)O)s2)cc1 (stereo not shown) [Compound 114, 3-(2-Cyclohexyl-6-oxo-piperidin-1-yl)-5-(4-methoxy-phenyl)-thiophene-2-carboxylic acid] | 90 nM | – | 100 to 5000 nM
5 | CC(C)(C)C#Cc1cc(N2C(=O)C(CCCO)(CCCO)OC[C@H]2C2CCCCC2)c(C(=O)O)s1 [Compound 115, 3-[(R)-5-Cyclohexyl-2,2-bis-(3-hydroxy-propyl)-3-oxo-morpholin-4-yl]-5-(3,3-dimethyl-but-1-ynyl)-thiophene-2-carboxylic acid] | 4 nM | – | 100 to 5000 nM
6 | CCOc1ccc(-c2cc(N3C(=O)CCCC3C3CCCCC3)c(C(=O)O)s2)cc1 (stereo not shown) [Compound 116, 3-(2-Cyclohexyl-6-oxo-piperidin-1-yl)-5-(4-ethoxy-phenyl)-thiophene-2-carboxylic acid] | 64 nM | – | 100 to 5000 nM
7 | O=C(O)c1sc(-c2ccc(C(F)(F)F)cc2)cc1N1C(=O)CCCC1C1CCCCC1 (stereo not shown) [Compound 117, 3-(2-Cyclohexyl-6-oxo-piperidin-1-yl)-5-(4-trifluoromethyl-phenyl)-thiophene-2-carboxylic acid] | 739 nM | ≥ 5000 nM | –
8 | C[C@@H]1CCCN1c1ccc(S(=O)(=O)N2CC(=O)N(c3cc(-c4ccccc4)sc3C(=O)O)C(C3CCCCC3)C2)cn1 (stereo partly drawn) [Compound 118, 3-{2-Cyclohexyl-4-[6-((R)-2-methyl-pyrrolidin-1-yl)-pyridine-3-sulfonyl]-6-oxo-piperazin-1-yl}-5-phenyl-thiophene-2-carboxylic acid] | 2 nM | ≤ 100 nM | –
9 | C[C@H]1CCCN1c1ccc(S(=O)(=O)N2CC(=O)N(c3cc(-c4ccccc4)sc3C(=O)O)C(C3CCCCC3)C2)cn1 (stereo partly drawn) [Compound 119, 3-{2-Cyclohexyl-4-[6-((S)-2-methyl-pyrrolidin-1-yl)-pyridine-3-sulfonyl]-6-oxo-piperazin-1-yl}-5-phenyl-thiophene-2-carboxylic acid] | 9 nM | ≤ 100 nM | –
10 | O=C(O)c1sc(-c2ccccc2)cc1N1C(=O)CN(S(=O)(=O)c2ccc(N3CC[C@@H](F)C3)nc2)CC1C1CCCCC1 (stereo partly drawn) [Compound 120, 3-{2-Cyclohexyl-4-[6-((R)-3-fluoro-pyrrolidin-1-yl)-pyridine-3-sulfonyl]-6-oxo-piperazin-1-yl}-5-phenyl-thiophene-2-carboxylic acid] | 6 nM | ≤ 100 nM | –
11 | O=C(O)c1sc(-c2ccccc2)cc1N1C(=O)CN(S(=O)(=O)c2ccc(N3CC[C@H](F)C3)nc2)CC1C1CCCCC1 (stereo partly drawn) [Compound 121, 3-{2-Cyclohexyl-4-[6-((S)-3-fluoro-pyrrolidin-1-yl)-pyridine-3-sulfonyl]-6-oxo-piperazin-1-yl}-5-phenyl-thiophene-2-carboxylic acid] | 7 nM | ≤ 100 nM | –
12 | C[C@@H]1C[C@@H](O)CN1c1ccc(S(=O)(=O)N2CC(=O)N(c3cc(-c4ccccc4)sc3C(=O)O)C(C3CCCCC3)C2)cn1 (stereo partly drawn) [Compound 122, 3-{2-Cyclohexyl-4-[6-((2R,4R)-4-hydroxy-2-methyl-pyrrolidin-1-yl)-pyridine-3-sulfonyl]-6-oxo-piperazin-1-yl}-5-phenyl-thiophene-2-carboxylic acid] | 2 nM | ≤ 100 nM | –
13 | O=C(O)c1sc(-c2ccccc2)cc1N1C(=O)CN(S(=O)(=O)c2ccc(N3CC[C@@H](O)C3)nc2)CC1C1CCCCC1 (stereo partly drawn) [Compound 123, 3-{2-Cyclohexyl-4-[6-((R)-3-hydroxy-pyrrolidin-1-yl)-pyridine-3-sulfonyl]-6-oxo-piperazin-1-yl}-5-phenyl-thiophene-2-carboxylic acid] | 2 nM | ≤ 100 nM | –
14 | O=C(O)c1sc(-c2ccccc2)cc1N1C(=O)CN(S(=O)(=O)c2ccc(N3CC[C@H](O)C3)nc2)CC1C1CCCCC1 (stereo partly drawn) [Compound 124, 3-{2-Cyclohexyl-4-[6-((S)-3-hydroxy-pyrrolidin-1-yl)-pyridine-3-sulfonyl]-6-oxo-piperazin-1-yl}-5-phenyl-thiophene-2-carboxylic acid] | 4 nM | – | 100 to 5000 nM
15 | O=C(O)c1sc(-c2ccccc2)cc1N1C(=O)CN(S(=O)(=O)c2ccc(N3C4CCC3CC4)nc2)CC1C1CCCCC1 (stereo not shown) [Compound 125, 3-{4-[6-(7-Aza-bicyclo[2.2.1]hept-7-yl)-pyridine-3-sulfonyl]-2-cyclohexyl-6-oxo-piperazin-1-yl}-5-phenyl-thiophene-2-carboxylic acid] | 18 nM | ≤ 100 nM | –
16 | C[C@@H]1CCC[C@H](C)N1c1ccc(S(=O)(=O)N2CC(=O)N(c3cc(-c4ccccc4)sc3C(=O)O)C(C3CCCCC3)C2)cn1 (stereo partly drawn) [Compound 126, 3-[2-Cyclohexyl-4-((2S,6R)-2,6-dimethyl-3,4,5,6-tetrahydro-2H-[1,2′]bipyridinyl-5′-sulfonyl)-6-oxo-piperazin-1-yl]-5-phenyl-thiophene-2-carboxylic acid] | 11 nM | ≤ 100 nM | –
17 | C[C@@H]1CCCN1c1ccc(S(=O)(=O)N2CC(=O)N(c3cc(-c4ccccc4)sc3C(=O)O)C(C3CCCCC3)C2)cc1 (stereo partly drawn) [Compound 127, 3-{2-Cyclohexyl-4-[4-((R)-2-methyl-pyrrolidin-1-yl)-benzenesulfonyl]-6-oxo-piperazin-1-yl}-5-phenyl-thiophene-2-carboxylic acid] | 3 nM | ≤ 100 nM | –
18 | CC1C(=O)N(c2cc(-c3ccccc3)sc2C(=O)O)C(C2CCCCC2)CN1S(=O)(=O)c1ccc(N2CCOCC2)nc1 (stereo not shown) [Compound 128, 3-[6-Cyclohexyl-3-methyl-4-(6-morpholin-4-yl-pyridine-3-sulfonyl)-2-oxo-piperazin-1-yl]-5-phenyl-thiophene-2-carboxylic acid] | 9 nM | – | 100 to 5000 nM
19 | N#Cc1ccc(-c2cc(N3C(=O)CCCC3C3CCCCC3)c(C(=O)O)s2)cc1 (stereo not shown) [Compound 129, 5-(4-Cyano-phenyl)-3-(2-cyclohexyl-6-oxo-piperidin-1-yl)-thiophene-2-carboxylic acid] | 96 nM | – | 100 to 5000 nM
20 | C[C@@H]1CCCN1c1ccc(S(=O)(=O)N2CC(=O)N(c3cc(-c4ccccc4)sc3C(=O)O)[C@H](C3CCCCC3)C2)cn1 [Compound 130, 3-{(R)-2-Cyclohexyl-4-[6-((R)-2-methyl-pyrrolidin-1-yl)-pyridine-3-sulfonyl]-6-oxo-piperazin-1-yl}-5-phenyl-thiophene-2-carboxylic acid] | 1 nM | ≤ 100 nM | –
21 | C[C@@H]1CCCN1c1ccc(S(=O)(=O)N2CC(=O)N(c3cc(-c4ccccc4)sc3C(=O)O)[C@@H](C3CCCCC3)C2)cn1 [Compound 131, 3-{(S)-2-Cyclohexyl-4-[6-((R)-2-methyl-pyrrolidin-1-yl)-pyridine-3-sulfonyl]-6-oxo-piperazin-1-yl}-5-phenyl-thiophene-2-carboxylic acid] | 261 nM | – | 100 to 5000 nM
22 | O=C(O)c1sc(-c2ccccc2)cc1N1C(=O)CN(S(=O)(=O)c2ccc(N3CCNCC3)nc2)C[C@@H]1C1CCCCC1 [Compound 132, 3-[(S)-2-Cyclohexyl-6-oxo-4-(6-piperazin-1-yl-pyridine-3-sulfonyl)-piperazin-1-yl]-5-phenyl-thiophene-2-carboxylic acid] | 108 nM | ≥ 5000 nM | –
23 | O=C(O)c1sc(-c2ccccc2)cc1N1C(=O)CN(S(=O)(=O)c2ccc(N3CCCC3)nc2)C[C@H]1C1CCCCC1 [Compound 135, 3-[(R)-2-Cyclohexyl-6-oxo-4-(6-pyrrolidin-1-yl-pyridine-3-sulfonyl)-piperazin-1-yl]-5-phenyl-thiophene-2-carboxylic acid] | 2.33 nM | ≤ 100 nM | –
24 | O=C(O)c1sc(-c2ccccc2)cc1N1C(=O)CN(S(=O)(=O)c2ccc(N3CCCC3)nc2)C[C@@H]1C1CCCCC1 [Compound 136, 3-[(S)-2-Cyclohexyl-6-oxo-4-(6-pyrrolidin-1-yl-pyridine-3-sulfonyl)-piperazin-1-yl]-5-phenyl-thiophene-2-carboxylic acid] | 260 nM | – | 100 to 5000 nM
25 | CN1CCN(c2ccc(S(=O)(=O)N3CC(=O)N(c4cc(-c5ccccc5)sc4C(=O)O)[C@H](C4CCCCC4)C3)cn2)CC1 [Compound 137, 3-{(R)-2-Cyclohexyl-4-[6-(4-methyl-piperazin-1-yl)-pyridine-3-sulfonyl]-6-oxo-piperazin-1-yl}-5-phenyl-thiophene-2-carboxylic acid] | 1.5 nM | ≤ 100 nM | –
26 | CC1(N)CCN(c2ccc(S(=O)(=O)N3CC(=O)N(c4cc(-c5ccccc5)sc4C(=O)O)[C@H](C4CCCCC4)C3)cn2)CC1 [Compound 138, 3-[(R)-4-(4-Amino-4-methyl-3,4,5,6-tetrahydro-2H-[1,2′]bipyridinyl-5′-sulfonyl)-2-cyclohexyl-6-oxo-piperazin-1-yl]-5-phenyl-thiophene-2-carboxylic acid] | 1 nM | ≤ 100 nM | –
